Experiments:
human tumor xenografts = assay: clonogenic assay, all 12 xenografts (means, active/total); format: cell-based
Description: The cell mixture was passed through sieves of 200 μm and 50 μm mesh size and washed thereafter twice with PBS. The percentage of viable cells was determined in a Neubauer counting chamber using trypan blue exclusion.
8×10^3 to 1,6×10^4 cells were added to 0.2 ml of the same culture medium together with 0.4% agar and placed in already coated 24-multiwell dishes. Test substances were applied by continuous exposure (drug overlay) in 0.2 ml medium. Every dish included six control wells containing the vehicle- and drug-treated groups in triplicate at six concentrations.
Cultures were incubated at 37° and 7% CO2 in a humidified atmosphere for 5 to 15 days (depending on the doubling time of the tumor stem cells) and monitored for colony growth using an inverted microscope. Within this period, in vitro tumor growth led to the formation of colonies with a diameter of ≧50 μm. At the time of maximum colony formation counts were performed with an automatic image analysis system (OMNICOM Fas IV, Biosys GmbH). […] Drug effects were expressed in terms of the percentage of surviving cells, obtained by comparison of the mean number of colonies in the treated plates with the mean colony count of the untreated controls (test-versus-control-group value, T/C=colony countTreated Group*100/colony countControl Group).
Coefficient of variation in the control group ≦50%. IC50 and IC70 values were determined by plotting compound concentration versus cell survival rate. Mean IC50 and IC70 values were calculated according to the formula: [formula]
with x=specific tumor xenograft and n=total number of tumor xenografts studied. If an IC50 or IC70 value could not be determined within the examined dose range, the lowest or highest concentration studied was used for the calculation.

[1] = oral; cited from earlier work
[2] = cited from earlier work
[3] = corresponding selenium concentration
[4] = mean over the xenografts studied

O=[Se]([O-])[O-].[Na+].[Na+] [sodium selenite]
T/C values in all xenografts (human tumor xenografts; 100 μM): below 20% | active(++, +++)/total (human tumor xenografts; 1. μM): 0/12 | active(++, +++)/total xenografts only, percent (human tumor xenografts; 1. μM): 0% | active(++, +++)/total (human tumor xenografts; 10. μM): 2/12 | active(++, +++)/total xenografts only, percent (human tumor xenografts; 10. μM): 17% | active(++, +++)/total (human tumor xenografts; 100. μM): 12/12 | active(++, +++)/total xenografts only, percent (human tumor xenografts; 100. μM): 100% | active(++, +++)/total (human tumor xenografts; .001 μM): 0/12 | active(++, +++)/total xenografts only, percent (human tumor xenografts; .001 μM): 0% | active(++, +++)/total (human tumor xenografts; .01 μM): 0/12 | active(++, +++)/total xenografts only, percent (human tumor xenografts; .01 μM): 0% | active(++, +++)/total (human tumor xenografts; .1 μM): 0/12 | active(++, +++)/total xenografts only, percent (human tumor xenografts; .1 μM): 0% | cytotoxic effect (human tumor xenografts; amounts up to 1 μM): no distinct cytotoxic effect | mean IC50 as selenium concentration (human tumor xenografts; [3]): 1,2 μg/ml | mean IC70 as selenium concentration (human tumor xenografts; [3]): 2.1 µg/mL | IC50 (human tumor xenografts; [4]): 15.5 µM | mean IC70 (human tumor xenografts; [4]): 27 µM | intestinal absorption, sometimes [1]: over 90% | dosage considered harmless in sensitive persons ([2]; humans, sensitive persons): up to 500 μg per day | safe maximum daily intake of selenium ([2]; humans, inferred from chronic toxicity observations): 820 µg | daily supply after which clinical signs of selenosis were observed ([2]; study carried out in China): 3200 to 6700 µg

Source: US6656509B1, “Combination of selenium-containing compounds with cytostatics” (Biosyn Arzneimittel GmbH, priority 1998, dated 2003)
